Assay results from ChEMBL document CHEMBL4706752 (ACS Med Chem Lett, 2021).

What was measured:
[1] = target: T1, Cytochrome P450 2C8 (Homo sapiens, UniProt P10632); test: Inhibition of CYP2C8 (unknown origin); format: ADME
T1 sequence (P10632 whole entry): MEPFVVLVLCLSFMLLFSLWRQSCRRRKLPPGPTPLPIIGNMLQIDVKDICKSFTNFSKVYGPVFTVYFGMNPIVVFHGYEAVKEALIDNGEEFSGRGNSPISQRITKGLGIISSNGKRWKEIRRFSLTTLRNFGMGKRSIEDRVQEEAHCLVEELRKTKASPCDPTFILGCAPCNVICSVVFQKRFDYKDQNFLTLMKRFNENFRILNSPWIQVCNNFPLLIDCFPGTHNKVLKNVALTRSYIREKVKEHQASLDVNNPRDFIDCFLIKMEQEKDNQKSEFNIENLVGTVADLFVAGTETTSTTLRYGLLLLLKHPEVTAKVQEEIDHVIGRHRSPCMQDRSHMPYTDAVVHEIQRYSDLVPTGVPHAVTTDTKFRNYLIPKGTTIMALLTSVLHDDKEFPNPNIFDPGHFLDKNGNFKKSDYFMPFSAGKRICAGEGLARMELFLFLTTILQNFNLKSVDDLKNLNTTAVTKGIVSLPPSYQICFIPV

[2] = Half life in cynomolgus monkey at 1 mg/kg, iv; format: ADME, organism-based, Macaca fascicularis; conditions: in vivo
[3] = AUC in Sprague-Dawley rat at 2 mg/kg, iv; format: ADME, organism-based; design: dose 2 mg/kg; conditions: in vivo
[4] = Cmax in Balb/c mouse at 4 mg/kg, po; format: ADME, organism-based; design: route oral, dose 4 mg/kg; conditions: in vivo
[5] = Decrease in IL-6 gene expression in C57BL/6 mouse model of IL-23 induced acanthosis model of psoriasis at 5 mg/kg, po BID for 10 days by RT-PCR analysis; format: functional; conditions: C57BL/6, po, 240 h, time 10 day
[6] = Decrease in LCN2 gene expression in C57BL/6 mouse model of IL-23 induced acanthosis model of psoriasis at 10 mg/kg, po BID for 10 days by RT-PCR analysis; format: functional; conditions: C57BL/6, po, 240 h, time 10 day
[7] = test system: Mus musculus; test: Antiinflammatory activity in DBA/1J mouse model of collagen-induced arthritis assessed as reduction in histological score at 20 mg/kg, po dosed twice daily for 21 days; format: functional; conditions: 504 h, time 21 day

- IC50 [1]: 7.6 µM
- half-life [2]: 720 min
- AUC [3]: 26.3 µM·h
- Cmax [4]: 2800 nM
Compound: C[C@@](O)(CS(C)(=O)=O)C(=O)N[C@@H]1CC[C@@]2(S(=O)(=O)c3ccc(F)cc3)c3ccc(C(F)(C(F)(F)F)C(F)(F)F)nc3CC[C@@H]12
- inhibition in vivo at 5 mg/kg [5]: 55.8%
- inhibition in vivo at 10 mg/kg [6]: 85.3%
- inhibition in vivo at 20 mg/kg [7]: 55%
